Experimental findings from ChEMBL document CHEMBL1201862, “PubChem BioAssay data set” (2004) are described below.

The subject of data set [1] is Streptococcus sp. 'group A'. Briefly: growth inhibition of control SK(-) GAS strain, dose response, counter-screen for streptokinase expression inhibitor project, luminescence, kanamycin, BacTiterGlo, confirmation (AID 1900). It is filed as functional, organism-based. (Counterscreens check selectivity or assay interference.)
In another data set the target is T1, Streptokinase A (Streptococcus pyogenes serotype M1, UniProt P10520).
T1 sequence (P10520 whole entry): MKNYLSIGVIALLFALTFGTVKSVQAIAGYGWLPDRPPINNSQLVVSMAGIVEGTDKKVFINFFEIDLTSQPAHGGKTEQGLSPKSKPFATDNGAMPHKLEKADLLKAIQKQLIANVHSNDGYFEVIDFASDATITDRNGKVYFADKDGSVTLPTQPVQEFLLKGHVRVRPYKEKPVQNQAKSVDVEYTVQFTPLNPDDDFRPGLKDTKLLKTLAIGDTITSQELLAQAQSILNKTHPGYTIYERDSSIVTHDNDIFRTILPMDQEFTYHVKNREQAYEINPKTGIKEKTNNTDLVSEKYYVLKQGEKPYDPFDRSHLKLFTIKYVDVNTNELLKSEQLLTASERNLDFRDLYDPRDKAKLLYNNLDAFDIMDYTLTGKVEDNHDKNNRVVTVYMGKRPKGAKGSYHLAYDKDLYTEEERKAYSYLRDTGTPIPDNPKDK
Put plainly: S. pyogenes streptokinase expression inhibitors, potency, dose response, plasminogen activation absorbance, OD405 (AID 1914).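 Further: secreted streptokinase activity via plasminogen activation per viability signal from cell pellet.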 Format: functional, Streptococcus pyogenes M1 GAS.

The target in data set [2] is T2, Methionyl-tRNA synthetase, putative (Trypanosoma brucei brucei, UniProt Q38C91).
T2 sequence (Q38C91 whole entry): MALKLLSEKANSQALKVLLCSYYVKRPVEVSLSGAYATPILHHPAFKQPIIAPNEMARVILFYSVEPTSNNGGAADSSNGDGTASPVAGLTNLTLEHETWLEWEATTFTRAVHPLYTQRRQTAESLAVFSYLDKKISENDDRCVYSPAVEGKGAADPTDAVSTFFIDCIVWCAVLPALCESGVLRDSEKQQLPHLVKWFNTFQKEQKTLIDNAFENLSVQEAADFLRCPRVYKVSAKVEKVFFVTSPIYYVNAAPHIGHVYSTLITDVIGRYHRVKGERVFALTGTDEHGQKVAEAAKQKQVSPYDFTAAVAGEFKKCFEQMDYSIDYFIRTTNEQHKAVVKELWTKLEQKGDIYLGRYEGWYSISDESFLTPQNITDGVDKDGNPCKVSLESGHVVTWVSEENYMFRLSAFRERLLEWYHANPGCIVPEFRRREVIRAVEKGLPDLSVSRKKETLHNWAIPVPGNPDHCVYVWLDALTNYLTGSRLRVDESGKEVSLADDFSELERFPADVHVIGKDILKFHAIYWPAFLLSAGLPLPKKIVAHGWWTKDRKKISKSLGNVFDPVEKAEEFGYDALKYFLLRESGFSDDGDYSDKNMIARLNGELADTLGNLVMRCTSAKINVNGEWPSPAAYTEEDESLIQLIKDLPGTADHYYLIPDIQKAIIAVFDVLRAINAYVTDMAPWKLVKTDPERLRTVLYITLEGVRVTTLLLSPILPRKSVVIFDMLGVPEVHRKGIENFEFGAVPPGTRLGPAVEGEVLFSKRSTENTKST
Format: functional, Trypanosoma brucei brucei strain 927/4 GUTat10.1.

In another data set the test system is Streptococcus. Put plainly: Group A Streptococcus viability loss, dose response, counter-screen for streptokinase expression inhibitor project, luminescence, BacTiterGlo (AID 1915).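 Further: potency for reduction of bacterial viability or growth.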 It is filed as functional, organism-based.
A short description of data set [3]: Counterscreen for inhibitors of Trypanosoma brucei methionyl tRNA synthetase (MetRS): Luminescence-based cell-based high throughput dose response assay to identify compounds that are cytotoxic to Jurkat human T lymphocyte cells. Format: functional.
The target of data set [4] is T2, Methionyl-tRNA synthetase, putative. Format: functional, Trypanosoma brucei brucei strain 927/4 GUTat10.1. This is another data set of the same source.
Data set [5] addresses DNA dC->dU-editing enzyme APOBEC-3A (Homo sapiens, UniProt P31941). Put plainly: SAR analysis of small molecule inhibitors of APOBEC3A DNA Deaminase via a fluorescence-based single-stranded DNA deaminase assay. Particulars: read-out: IC50_Mean. Format: functional.
Data set [6] deals with DNA dC->dU-editing enzyme APOBEC-3G (Homo sapiens, UniProt Q9HC16). Put plainly: APOBEC3G deaminase inhibitors, SAR follow-up, biochemical, fluorescence, single-stranded DNA substrate (AID 602136). Format: functional. Particulars: read-out: IC50_Mean.
Chain of DNA dC->dU-editing enzyme APOBEC-3G (Q9HC16 whole entry): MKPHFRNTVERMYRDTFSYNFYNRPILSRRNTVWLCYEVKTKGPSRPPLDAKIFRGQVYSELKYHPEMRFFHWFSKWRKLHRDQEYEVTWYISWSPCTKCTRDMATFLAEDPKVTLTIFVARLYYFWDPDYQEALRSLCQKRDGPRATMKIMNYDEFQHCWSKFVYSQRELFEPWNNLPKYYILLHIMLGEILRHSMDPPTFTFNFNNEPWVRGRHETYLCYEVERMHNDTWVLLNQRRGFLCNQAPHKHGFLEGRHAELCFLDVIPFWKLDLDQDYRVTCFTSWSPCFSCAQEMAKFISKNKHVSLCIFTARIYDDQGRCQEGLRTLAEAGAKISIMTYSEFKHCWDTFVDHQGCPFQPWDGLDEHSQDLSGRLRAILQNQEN
The next data set has as its target Cytochrome P450 2C9 (Homo sapiens, UniProt P11712).
In data set [7] the target is T3, DNA repair and recombination protein RAD54-like (Homo sapiens, UniProt Q92698).
T3 sequence (Q92698 whole entry): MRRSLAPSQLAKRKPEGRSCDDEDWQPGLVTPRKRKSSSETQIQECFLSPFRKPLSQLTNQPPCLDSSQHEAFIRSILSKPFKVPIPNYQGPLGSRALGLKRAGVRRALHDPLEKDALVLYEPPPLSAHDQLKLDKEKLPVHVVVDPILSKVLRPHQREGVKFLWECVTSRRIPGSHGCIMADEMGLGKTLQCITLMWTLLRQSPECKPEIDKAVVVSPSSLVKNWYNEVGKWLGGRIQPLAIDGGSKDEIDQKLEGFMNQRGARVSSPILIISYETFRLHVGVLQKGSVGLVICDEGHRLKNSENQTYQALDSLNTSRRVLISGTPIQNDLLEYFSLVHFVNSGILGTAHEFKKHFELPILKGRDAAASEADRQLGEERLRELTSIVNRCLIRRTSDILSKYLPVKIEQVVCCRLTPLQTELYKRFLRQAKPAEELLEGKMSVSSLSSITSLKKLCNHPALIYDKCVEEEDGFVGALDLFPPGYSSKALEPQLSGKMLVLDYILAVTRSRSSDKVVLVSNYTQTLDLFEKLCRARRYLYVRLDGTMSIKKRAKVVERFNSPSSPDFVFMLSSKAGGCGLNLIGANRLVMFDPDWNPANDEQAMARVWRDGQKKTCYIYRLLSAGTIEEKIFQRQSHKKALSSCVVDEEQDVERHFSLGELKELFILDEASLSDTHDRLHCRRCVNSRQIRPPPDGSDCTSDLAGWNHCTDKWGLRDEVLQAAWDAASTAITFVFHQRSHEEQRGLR
Put plainly: inhibitors of human RAD54 branch migration, confirmation, biochemical, fluorescence, cherry-picked samples, dose series (AID 651657). Format: functional.

Data set [8] deals with T4, DNA repair protein RAD52 homolog (Homo sapiens, UniProt P43351).
T4 sequence (P43351 whole entry): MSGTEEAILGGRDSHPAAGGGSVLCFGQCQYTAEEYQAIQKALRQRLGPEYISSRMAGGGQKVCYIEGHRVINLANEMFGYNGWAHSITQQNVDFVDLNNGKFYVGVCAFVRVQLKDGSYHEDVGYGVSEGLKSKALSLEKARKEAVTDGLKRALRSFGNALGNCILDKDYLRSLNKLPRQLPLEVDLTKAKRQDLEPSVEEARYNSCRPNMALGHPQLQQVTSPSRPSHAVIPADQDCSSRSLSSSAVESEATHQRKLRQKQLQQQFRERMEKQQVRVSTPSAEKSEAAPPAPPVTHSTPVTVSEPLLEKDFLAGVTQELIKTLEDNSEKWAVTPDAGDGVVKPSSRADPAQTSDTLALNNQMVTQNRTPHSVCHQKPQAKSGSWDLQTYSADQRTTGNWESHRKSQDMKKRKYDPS
Format: functional, biochemical.

The target in data set [9] is T5, Apoptotic protease-activating factor 1 (Homo sapiens, UniProt O14727).
T5 sequence (O14727 whole entry): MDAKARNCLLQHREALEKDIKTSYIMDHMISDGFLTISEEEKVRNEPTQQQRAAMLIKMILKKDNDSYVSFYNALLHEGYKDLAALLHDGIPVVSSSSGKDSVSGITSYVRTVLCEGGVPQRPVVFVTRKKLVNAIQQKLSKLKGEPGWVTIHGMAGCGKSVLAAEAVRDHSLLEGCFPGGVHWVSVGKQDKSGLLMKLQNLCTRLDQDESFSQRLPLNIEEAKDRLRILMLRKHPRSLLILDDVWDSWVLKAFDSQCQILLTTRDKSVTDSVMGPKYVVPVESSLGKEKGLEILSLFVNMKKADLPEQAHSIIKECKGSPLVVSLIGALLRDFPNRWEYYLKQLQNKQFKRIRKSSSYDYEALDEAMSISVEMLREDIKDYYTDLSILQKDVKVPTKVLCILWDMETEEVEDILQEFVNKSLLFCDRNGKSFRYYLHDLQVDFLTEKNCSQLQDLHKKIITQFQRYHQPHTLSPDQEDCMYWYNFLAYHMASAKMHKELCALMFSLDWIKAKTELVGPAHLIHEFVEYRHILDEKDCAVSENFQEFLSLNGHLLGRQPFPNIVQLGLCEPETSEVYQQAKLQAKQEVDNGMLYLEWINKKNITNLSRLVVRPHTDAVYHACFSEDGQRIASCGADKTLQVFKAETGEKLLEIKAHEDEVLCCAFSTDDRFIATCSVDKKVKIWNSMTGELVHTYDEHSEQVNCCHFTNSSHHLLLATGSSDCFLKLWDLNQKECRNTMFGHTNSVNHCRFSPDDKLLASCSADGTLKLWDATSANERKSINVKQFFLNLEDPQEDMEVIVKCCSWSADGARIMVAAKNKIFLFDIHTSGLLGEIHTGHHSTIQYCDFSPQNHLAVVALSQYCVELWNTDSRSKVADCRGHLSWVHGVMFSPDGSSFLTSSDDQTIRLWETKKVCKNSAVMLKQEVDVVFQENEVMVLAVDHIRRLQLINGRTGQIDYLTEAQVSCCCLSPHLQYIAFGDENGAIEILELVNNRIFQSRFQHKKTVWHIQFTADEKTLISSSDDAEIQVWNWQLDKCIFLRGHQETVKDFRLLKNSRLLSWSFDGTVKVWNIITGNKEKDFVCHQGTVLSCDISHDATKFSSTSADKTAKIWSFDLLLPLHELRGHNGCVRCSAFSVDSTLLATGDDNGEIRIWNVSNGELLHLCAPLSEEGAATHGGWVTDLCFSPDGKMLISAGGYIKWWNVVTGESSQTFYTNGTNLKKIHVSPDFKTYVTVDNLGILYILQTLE
It is filed as functional.

The target in the next data set is Nonstructural protein 1 (Influenza A virus, UniProt Q194T2). Format: functional, Influenza A virus (A/California/07/2009(H1N1)).
Chain of Nonstructural protein 1 (Q194T2 whole entry): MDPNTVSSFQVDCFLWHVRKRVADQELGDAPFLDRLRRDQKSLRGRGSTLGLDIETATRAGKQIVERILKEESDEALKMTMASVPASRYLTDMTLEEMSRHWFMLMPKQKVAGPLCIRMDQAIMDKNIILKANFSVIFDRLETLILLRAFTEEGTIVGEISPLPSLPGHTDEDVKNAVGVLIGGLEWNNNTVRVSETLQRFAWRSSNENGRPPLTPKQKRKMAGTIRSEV
Data set [10] deals with Induced myeloid leukemia cell differentiation protein Mcl-1 (Homo sapiens, UniProt Q07820). Format: functional.
Chain of Induced myeloid leukemia cell differentiation protein Mcl-1 (Q07820 whole entry): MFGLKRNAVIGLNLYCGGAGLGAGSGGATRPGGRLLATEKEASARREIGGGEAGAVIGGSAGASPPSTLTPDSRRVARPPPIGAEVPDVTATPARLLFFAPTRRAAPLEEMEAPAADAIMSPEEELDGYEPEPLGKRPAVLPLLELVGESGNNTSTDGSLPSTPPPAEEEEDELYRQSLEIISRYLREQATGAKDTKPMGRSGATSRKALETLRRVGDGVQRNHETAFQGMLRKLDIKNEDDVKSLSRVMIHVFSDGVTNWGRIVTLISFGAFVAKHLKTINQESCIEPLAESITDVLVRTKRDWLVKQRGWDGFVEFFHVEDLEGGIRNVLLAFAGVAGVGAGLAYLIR
In data set [11] the target is T6, Polyadenylate-binding protein 1 (Homo sapiens, UniProt P11940). Put plainly: PABP1 MLLE–PAM2 binding inhibitor potency, dose response, biochemical, fluorescence polarization, FITC-PAM2 peptide (AID 602259). Particulars: read-out: IC50_Mean. Format: functional.
T6 sequence (P11940 whole entry): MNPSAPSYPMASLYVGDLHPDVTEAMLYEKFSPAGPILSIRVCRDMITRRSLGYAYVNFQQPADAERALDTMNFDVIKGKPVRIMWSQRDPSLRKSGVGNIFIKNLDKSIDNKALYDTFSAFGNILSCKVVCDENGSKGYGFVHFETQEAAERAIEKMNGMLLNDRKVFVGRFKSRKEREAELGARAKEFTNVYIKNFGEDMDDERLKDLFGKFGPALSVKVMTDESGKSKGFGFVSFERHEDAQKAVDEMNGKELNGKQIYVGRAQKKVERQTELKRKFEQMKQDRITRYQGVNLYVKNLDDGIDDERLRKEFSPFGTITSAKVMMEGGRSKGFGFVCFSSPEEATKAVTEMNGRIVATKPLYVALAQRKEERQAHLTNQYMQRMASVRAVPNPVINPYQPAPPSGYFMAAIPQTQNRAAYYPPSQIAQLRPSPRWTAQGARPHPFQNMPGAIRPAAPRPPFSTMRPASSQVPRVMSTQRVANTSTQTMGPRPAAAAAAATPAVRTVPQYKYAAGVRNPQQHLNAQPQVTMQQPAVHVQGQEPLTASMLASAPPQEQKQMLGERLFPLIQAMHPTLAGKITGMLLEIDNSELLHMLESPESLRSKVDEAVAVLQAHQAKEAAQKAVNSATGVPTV
The target of data set [12] is T6, Polyadenylate-binding protein 1. Put plainly: PABP1 MLLE–PAM2 interaction inhibitors, dose response, miRNA deadenylation inhibitor project, biochemical, fluorescence polarization, Cy5-PAM2 peptide, secondary (AID 602260). It is filed as functional. Particulars: read-out: IC50_Mean. For orientation: Polarisation of emitted light reports the rotation of a fluorescent probe.

Data set [13] can be described thus: THP-1 cell cytotoxicity, dose response, cytotoxicity control for Vif-APOBEC3G degradation inhibitor project, THP-1 cells (AID 1117359). It is filed as functional. Particulars: Human immunodeficiency virus 1, THP-1.
Data set [14] can be described thus: HepG2 cell cytotoxicity, dose response, cytotoxicity control for Shn3 inhibitor project, CellTiter-Glo, cherry-picked (AID 624134). Format: functional, cell-based.
Data set [15] is described as follows: Shn3 3'UTR reporter inhibitors, dose response, cell-based, Clone20 osteoblasts, firefly luciferase, cherry-picked (AID 624132).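 Further: firefly luciferase luminescence from reporter carrying the Shn3 3'UTR in osteoblasts.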 Format: functional.
Data set [16] can be described thus: control 3'UTR Renilla luciferase suppression, dose response, counter-screen for Shn3 inhibitor project, cell-based, Clone20-Shn3RL, cherry-picked (AID 624133). Format: functional.

The structures appear in SMILES notation. Calls of active or inactive are those of the source.

Chain of DNA dC->dU-editing enzyme APOBEC-3A (P31941 whole entry): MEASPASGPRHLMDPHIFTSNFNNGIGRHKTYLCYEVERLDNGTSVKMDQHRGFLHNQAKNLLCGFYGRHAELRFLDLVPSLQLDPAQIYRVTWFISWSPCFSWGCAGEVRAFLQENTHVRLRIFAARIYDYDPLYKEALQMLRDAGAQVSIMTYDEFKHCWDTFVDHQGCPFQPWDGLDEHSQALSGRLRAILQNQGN
Chain of Cytochrome P450 2C9 (P11712 whole entry): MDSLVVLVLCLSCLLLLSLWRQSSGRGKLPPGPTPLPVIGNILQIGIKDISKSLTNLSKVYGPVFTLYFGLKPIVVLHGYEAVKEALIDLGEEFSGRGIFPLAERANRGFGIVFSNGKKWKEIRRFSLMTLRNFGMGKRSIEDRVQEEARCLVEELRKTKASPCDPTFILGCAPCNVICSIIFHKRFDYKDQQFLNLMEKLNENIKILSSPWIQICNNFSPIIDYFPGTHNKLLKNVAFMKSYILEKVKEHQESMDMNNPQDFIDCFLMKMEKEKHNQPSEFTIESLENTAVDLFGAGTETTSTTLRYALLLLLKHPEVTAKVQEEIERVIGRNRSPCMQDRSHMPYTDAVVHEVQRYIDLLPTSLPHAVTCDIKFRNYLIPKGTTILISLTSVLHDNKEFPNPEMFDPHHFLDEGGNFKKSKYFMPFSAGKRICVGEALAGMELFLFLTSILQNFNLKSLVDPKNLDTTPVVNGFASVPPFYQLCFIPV

Consider `S=C(NCc1cccs1)Nc1cc(Cl)cc(Cl)c1`, for which the EC50 in data set [1] was 5.49 µM (active); on Streptokinase A, > 150 µM (not active); in the data set on Streptococcus, 13.7 µM (active). In addition, the IC50 in data set [2] is 104 µM (inactive); in [3], 34.5 µM (inactive); in data set [4], 24.6 µM (inactive).
Turning to `O=C(c1nn2c(C(F)(F)F)cc(-c3ccc(Cl)cc3)nc2c1Cl)N1CCCC1`, the IC50 in data set [5] and in data set [6] was > 99 µM (inactive) in each case.
Turning to `C#CCSc1nnc(-c2cc3c(C(F)(F)F)nn(C)c3s2)n1C`, the IC50 in data set [5] and in data set [6] was > 99 µM (inactive) throughout. At Cytochrome P450 2C9, the half-maximal activity concentration (AC50) result was “inconclusive”.
For the compound `Cc1cccn2c(=O)c3cc(C(=O)NCCN4CCOCC4)c(=N)n(CCN4CCOCC4)c3nc12`, the half-maximal activity concentration (AC50) in data set [7] was 15.9 µM (active); in data set [8], 13.7 µM (active).
On to `CCOC(=O)C1CCCN(C2=C(NS(=O)(=O)c3ccc(Br)cc3)C(=O)c3ccccc3C2=O)C1` (configuration not stated), for which the IC50 in data set [9] is 19.5 µM (active); on Nonstructural protein 1, 15.9 µM (active).
As for `COc1ccc(Nc2c3c(nc4ccc(C)cc24)CCC3)cc1`, the concentration at half-maximal activity (AC50) in data set [7] is 84.4 µM (active).
For `COc1ccc2c(c1)c1ccc3c(c1n2C)C(=O)C=CC3=O`, the IC50 in data set [10] was 0.946 µM (active); in [11], 58.5 µM (inactive); in data set [9] it was 19.3 µM (active); in [12], > 66 µM (inactive). Besides, the 50% cytotoxic concentration (CC50) in [13] was 18 µM (active).
With `O=C(c1ccc(Cl)cc1)C1CCCN(Cc2cccc3ncccc23)C1` (configuration not stated), the AC50 is > 70 µM (inactive) in data set [14], 4.52 µM (active) in data set [15] and 7.83 µM (active) in data set [16].
As to `COc1cc(CNc2[nH]cnc3c4cc(C)ccc4nc2-3)cc(OC)c1`, the IC50 is 1.46 µM (active) in data set [2], 27.8 µM (inactive) in data set [3] and 2.32 µM (active) in data set [4].

Usually EC50 stands for the concentration giving half of the maximal effect. The AC50 is the midpoint of the concentration-response curve, whichever way the signal moves. For orientation: CC50 means the concentration giving 50% cytotoxicity.
